Results: patent publication US8288375B2, “Fungicidal bicyclic pyrazoles” (E.I. du Pont de Nemours and Company, priority 2007, dated 2012)

Assays:
Assay type in all cases: in vivo
[1] = tested on: Erysiphe graminis f. sp. tritici; assay: Test A: wheat powdery mildew, test suspension sprayed on wheat seedlings, disease rating; details: 200 ppm test suspension, 100 = 100% disease control, 0 = no control; for pest or weed control at 200 ppm: Blumeria graminis, 192 h
[2] = tested on: Puccinia recondite f sp. tritici; assay: Test B: wheat leaf rust, test suspension sprayed on wheat seedlings, disease rating; details: 200 ppm test suspension; for pest or weed control at 200 ppm: Puccinia, 192 h;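 as to all read-outs here: 200 ppm unless marked * meaning 40 ppm or ** meaning 10 ppm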
Fusarium graminearum = assay: whole plant or invertebrate; details: for pest or weed control at 200 ppm: Fusarium graminearum, in Triticum aestivum, 192 h, read-out: Test C disease control rating; for Test C disease control rating: 200 ppm test suspension
Septoria nodorum = assay: Test D: wheat glume blotch, test suspension sprayed on wheat seedlings, disease rating; details: 200 ppm test suspension; for pest or weed control at 200 ppm: Parastagonospora nodorum, 216 h
Septoria tritici = assay: Test E: wheat leaf blotch, test suspension sprayed on wheat seedlings, disease rating; details: 200 ppm test suspension; for pest or weed control at 200 ppm: Zymoseptoria tritici, 504 h;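 as to all read-outs here: 200 ppm unless marked * meaning 40 ppm or ** meaning 10 ppm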
Phytophthora infestans = assay: whole plant or invertebrate; details: for pest or weed control at 200 ppm: Phytophthora infestans, in Solanum lycopersicum, 120 h, read-out: Test J disease control rating; for Test J disease control rating: 200 ppm test suspension
Pythium aphanidermatum = assay: Test L: bluegrass pythium blight, test suspension sprayed on bluegrass seedlings, disease rating; details: 200 ppm test suspension; for pest or weed control at 200 ppm: Pythium aphanidermatum, 120 h;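 as to all read-outs here: 200 ppm unless marked * meaning 40 ppm or ** meaning 10 ppm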

| Compound | pest or weed control at 200 ppm [1] | pest or weed control at 200 ppm [2] | pest or weed control at 200 ppm (Fusarium graminearum) | pest or weed control at 200 ppm (Septoria nodorum) | pest or weed control at 200 ppm (Septoria tritici) | pest or weed control at 200 ppm (Phytophthora infestans) | pest or weed control at 200 ppm (Pythium aphanidermatum) | Test A disease control rating [1] | Test B disease control rating [2] | Test C disease control rating (Fusarium graminearum) | Test D disease control rating (Septoria nodorum) | Test E disease control rating (Septoria tritici) | Test J disease control rating (Phytophthora infestans) | Test L disease control rating (Pythium aphanidermatum) |
| --- | --- | --- | --- | --- | --- | --- | --- | --- | --- | --- | --- | --- | --- | --- |
| COCC(C)Nc1nccc(-c2c(-c3ccc(F)cc3F)nn3c2CSC3)n1 (stereo not shown) [Compound 83, 4-[2-(2,4-difluorophenyl)-4H,6H-pyrazolo[1,5-c]thiazol-3-yl]-N-(2-methoxy-1-methylethyl)-2-pyrimidinamine] | 0% | 0% | 0% | 60% | 67% | 93% | 99% | – | – | – | – | – | – | – |
| CC(CO)Nc1nccc(-c2c(-c3ccc(F)cc3)nn3c2CSCC3)n1 (stereo not shown) [compound 111] | – | – | – | – | – | – | – | 21% | 95% | 95% | 64% | 31% | 80% | 100% |
| Fc1ccccc1-c1nn2c(c1-c1ccnc(NC3CC3)n1)CCC2 [compound 99] | – | – | – | – | – | – | – | 0% | 94% | 99% | 89% | 98% | 99% | 100% |
| Fc1cccc(-c2nn3c(c2-c2ccnc(NC4CC4)n2)CCC3)c1 [compound 103] | – | – | – | – | – | – | – | 85% | 95% | 99% | 99% | 100% | 99% | 100% |
| CC(CO)Nc1nccc(-c2c(-c3ccc(F)cc3F)nn3c2COCC3)n1 (stereo not shown) [compound 127] | – | – | – | – | – | – | – | 0% | 97% | 96% | 60% | 86% | 100% | 99% |
| Fc1ccc(-c2nn3c(c2-c2ccnc(NCC4CCCO4)n2)CCCC3)cc1 (stereo not shown) [compound 34] | – | – | – | – | – | – | – | 96% | 100% | 98% | 100% | 94% | 91% | 100% |
| c1cc(-c2c(-c3ccsc3)nn3c2CCCC3)nc(NC2CC2)n1 [compound 61] | – | – | – | – | – | – | – | 79% | 94% | 98% | 99% | 98% | 97% | 99% |
| CC(C)Nc1nccc(-c2c(-c3ccc(F)cc3)nn3c2CS(=O)(=O)CC3)n1 [Compound 114, 4-[2-(4-fluorophenyl)-6,7-dihydro-5,5-dioxido-4H-pyrazolo[5,1-c][1,4]thiazin-3-yl]-N-(1-methylethyl)-2-pyrimidinamine] | 57% | 100% | 94% | 73% | 86% | 100% | 100% | – | – | – | – | – | – | – |
| C[C@H](CO)Nc1nccc(-c2c(-c3ccc(F)cc3)nn3c2CCOC3)n1 [compound 113] | – | – | – | – | – | – | – | 0% | 97% | 99% | 78% | 91% | 96% | 100% |
| Cc1ccccc1-c1nn2c(c1-c1ccnc(NC(C)CO)n1)CCCC2 (stereo not shown) [compound 46] | – | – | – | – | – | – | – | 0% | 74% | 0% | 0% | 50% | 97% | 100% |
| Fc1ccc(-c2nn3c(c2-c2ccnc(NC4CCOCC4)n2)CCCC3)cc1 [compound 49] | – | – | – | – | – | – | – | 76% | 99% | 100% | 100% | 90% | 100% | 99% |
| CC1CN1c1nccc(-c2c(-c3ccc(F)cc3)nn3c2CCCC3)n1 (stereo not shown) [compound 81] | – | – | – | – | – | – | – | 0% | 98% | 98% | 87% | 100% | 99% | 95% |
| CC(=O)Nc1nccc(-c2c(-c3ccc(F)cc3)nn3c2CCCC3)n1 [Compound 52, N-[4-[2-(4-fluorophenyl)-4,5,6,7-tetrahydropyrazolo[1,5-a]pyridin-3-yl]-2-pyrimidinyl]acetamide] | 0% | 100% | 99% | 97% | 98% | 95% | 100% | – | – | – | – | – | – | – |
| Fc1ccc(-c2nn3c(c2-c2ccnc(NC4CC4)n2)COCC3)c(F)c1 [compound 126] | – | – | – | – | – | – | – | 0% | 86% | 99% | 82% | 70% | 87% | 99% |
| CC(C)Nc1nccc(-c2c(-c3ccc(F)cc3F)nn3c2COCC3)n1 [compound 125] | – | – | – | – | – | – | – | 20% | 86% | 100% | 89% | 88% | 100% | 100% |
| CCC(C)Nc1nccc(-c2c(-c3cccc(F)c3)nn3c2CCC3)n1 (stereo not shown) [compound 101] | – | – | – | – | – | – | – | 0% | 89% | 99% | 92% | 94% | 57% | 91% |
| CC(C)CNc1nccc(-c2c(-c3ccc(F)cc3)nn3c2CCCC3)n1 [compound 29] | – | – | – | – | – | – | – | 0% | 95% | 100% | 98% | 85% | 47% | 0% |
| CC(CS(=O)(=O)[O-])Nc1nccc(-c2c(-c3ccc(F)cc3)nn3c2CCCC3)n1.[Na+] (stereo not shown) [compound 64] | – | – | – | – | – | – | – | 0% | 0% | 0% | 0% | 0% | 0% | 0% |
| CC(C)Nc1nccc(-c2c(-c3ccccc3F)nn3c2CCCC3)n1 [compound 36] | – | – | – | – | – | – | – | 0% | 91% | 99% | 96% | 96% | 90% | 99% |
